From ChEMBL document CHEMBL1134141, “Diaminopurine-acridine heterodimers for specific recognition of abasic site containing DNA. Influence on the biological activity of the position of the linker on the purine ring” (Bioorg Med Chem Lett, 2001)

Experiments:
A549 [1] = experiment: The compound was evaluated for cytotoxicity against A549 cell line; type: functional, cell-based; details: Homo sapiens
L1210 = experiment: The compound was evaluated for cytotoxicity against L1210 cell line; type: functional, cell-based; details: Mus musculus
A549 [2] = experiment: Cytotoxicity of compound in synergy in BCNU (10 uM) against A549 cell line; type: functional, Homo sapiens
A549 [3] = experiment: Cytotoxicity of compound in synergy in 94% BCNU (10 uM) against A549 cell line; type: functional, Homo sapiens

SMILES	IC50 (A549 [1])	IC50 (L1210)	Synergy (A549 [2])	Synergy (A549 [3])
COc1ccc2nc3cc(Cl)ccc3c(NCCCC/N=C(\N)NCCCn3cnc4c(N)nc(N)nc43)c2c1	6.5 µM	60 µM	16%	
COc1ccc2nc3cc(Cl)ccc3c(NCCCC/N=C(\N)NCCCNc3nc(N)c4[nH]cnc4n3)c2c1	5 µM	36 µM		
COc1ccc2nc3cc(Cl)ccc3c(NCCCN(CCCN(CCn3cnc4c(N)ncnc43)C(=N)N)C(=N)N)c2c1	10 µM	33 µM		94%
COc1ccc2nc3cc(Cl)ccc3c(NCCCC/N=C(\N)NCCCNc3[nH]c(N)nc4ncnc3-4)c2c1	5 µM	> 100 µM		
